Patent publication US4808701A, “Cyclic peptides having appetite regulating activity” (Hoffmann-La Roche Inc., priority 1987, dated 1989)
Where a SMILES comes first, the peptide text is derived from it.

Assays:
[1] = molecular target: T1, 3H-CCK-8-(SO3H) binding, rat pancreas homogenate (Rattus norvegicus, UniProt P30551); assay: In vitro receptor binding assay, rat pancreas; details: 0.15 nM 3H-CCK-8-(SO3H), 30 min, 25° C.; read-out: Rat Pancreas IC50 (inhibition of specific 3H-CCK-8-(SO3H) binding)
T1 construct: tissue homogenate (striatum 0.26 mg protein in 2 ml final volume; pancreas 0.165 mg protein in 1 ml final volume); from tissue; host or cells: rat pancreas membrane homogenate
T1 sequence (P30551 1-444): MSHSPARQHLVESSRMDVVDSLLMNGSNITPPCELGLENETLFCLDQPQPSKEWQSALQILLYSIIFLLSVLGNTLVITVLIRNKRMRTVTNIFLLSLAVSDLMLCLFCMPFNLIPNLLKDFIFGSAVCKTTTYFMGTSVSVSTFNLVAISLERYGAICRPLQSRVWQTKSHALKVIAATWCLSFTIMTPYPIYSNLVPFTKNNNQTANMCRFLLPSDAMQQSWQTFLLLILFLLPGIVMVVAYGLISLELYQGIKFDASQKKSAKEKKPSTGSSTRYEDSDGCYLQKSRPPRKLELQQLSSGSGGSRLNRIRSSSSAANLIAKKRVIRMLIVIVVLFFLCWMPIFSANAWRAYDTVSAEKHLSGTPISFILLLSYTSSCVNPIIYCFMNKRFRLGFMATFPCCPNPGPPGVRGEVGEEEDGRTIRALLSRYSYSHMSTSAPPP
Method: (§1) The tissue was homogenized 2× for approx. 15 sec. at 0° C. using a Polytron homogenizer at a setting of 6. The tissue was isolated by centrifugation at 48,000×g for 10 min. at 0° C. […] Samples were incubated for 30 min. at 25° C. and the incubation terminated by pouring the mixture onto a pre-wet Whatman GF/B filter on a Sandbeck Vacuum Filtration Manifold. The incubation tubes were washed with 2×3 ml of ice-cold HEPES Buffer #2 and the wash filtered through the GF/B filter. The filter was air dried for 10 min. and then placed in a scintillation vial with 12 ml of Beckman HP/b Ready-Solv scintillation cocktail. The vials were shaken for 2-12 hours and then counted using a Beckman Model 7800 liquid scintillation spectrometer.

[2] = molecular target: T2, 3H-CCK-8-(SO3H) binding, bovine striatum homogenate (Bos taurus, UniProt P79266); assay: In vitro receptor binding assay, bovine striatum; details: 0.15 nM 3H-CCK-8-(SO3H), 30 min, 25° C.; read-out: Bovine Striatum IC50 (inhibition of specific 3H-CCK-8-(SO3H) binding)
T2 construct: tissue homogenate (striatum 0.26 mg protein in 2 ml final volume; pancreas 0.165 mg protein in 1 ml final volume); from tissue; host or cells: bovine striatum membrane homogenate
T2 sequence (P79266 1-454): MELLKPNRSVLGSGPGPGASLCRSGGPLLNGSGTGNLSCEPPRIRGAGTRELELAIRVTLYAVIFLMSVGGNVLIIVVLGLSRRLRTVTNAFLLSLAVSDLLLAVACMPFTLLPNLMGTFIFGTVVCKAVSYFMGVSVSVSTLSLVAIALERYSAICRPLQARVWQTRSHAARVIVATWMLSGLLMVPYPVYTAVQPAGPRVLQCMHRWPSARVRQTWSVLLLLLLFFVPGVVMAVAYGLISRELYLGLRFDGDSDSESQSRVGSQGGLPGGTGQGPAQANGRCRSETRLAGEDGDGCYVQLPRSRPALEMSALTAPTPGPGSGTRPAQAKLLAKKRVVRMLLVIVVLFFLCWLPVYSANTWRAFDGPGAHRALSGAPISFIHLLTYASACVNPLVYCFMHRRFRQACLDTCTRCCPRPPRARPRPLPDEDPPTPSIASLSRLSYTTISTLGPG
Method: as §1

[3] = in vitro; details: human, real gastrointestinal fluid or homogenate
Method: The degradation was monitored by analytical HPLC on a micro Bondapack (C18 column (0.4×30 cm) with a linear gradient of 10-40% of 0.01M NH4 Ac/CH3 CN in 40 min. with a flow rate of 2 ml/min and detection at 225 nm.

[4] = system: food intake in lean and obese men; details: infusions in lean and obese men; cited from earlier work
[5] = system: food intake of meal-trained male Sprague-Dawley (CD) rats; assay: Two-meal feeding assay; format: in vivo, rat; details: dose 32 microgm/kg i.p. 15 min before first meal; mean ± SEM
Method: Male Sprague-Dawley (CD) rats weighing 180-200 grams (Charles River Breeding Laboratories) were acclimated to a 12 h light/dark cycle (6 a.m. to 6 p.m.) in a room kept at 22° C. They were subsequently fasted for two days, weighed, placed in individual cages, and a four-day period of meal training was begun. During this time the rats were given ground laboratory chow (Purina Lab Chow) in jars for one hour from 9:00 a.m. until 10:00 a.m., the jars were removed from 10:00 a.m. to 12:00 p.m., and placed back in the cages from 12:00 until 1:00 p.m. Under this `1-2-1` meal feeding regime, most rats learn to eat approximately as much per day during the two hours they have access to food as rats which have food ad libitum over the entire 24-hour day. On the fourth day, the rats were weighed again, and any which lost more than five grams body weight were excluded from the test. The animals were then distributed into experimental (n=5 to 6) and control groups (n=6-12), but not matched for body weight.
Peptides of the invention were suspended either in saline, if soluble, or in 1% gum arabic, if insoluble, at concentrations of 32 to 320 μg/ml/kg body weight and were administered intraperitonerally 15 min before the first meal on day 5 of meal feeding. […] Food intake was expressed as a mean and standard error of the mean as a percent of control values for the various groups. […]

metabolised at 0.25 h, 0.5 mg/mL [3] [%] | Structure (SMILES) | IC50 [1] [nM] | IC50 [2] [µM] | metabolised at 1 h, 0.5 mg/mL [3] [%] | Effect of infusion on food intake [4] | Food Intake 1st Meal [5] | Food Intake 2nd Meal [5]
– | CSCC[C@@H]1NC(=O)[C@H](Cc2c[nH]c3ccccc23)NC(=O)CNC(=O)[C@@H](NC(=O)[C@H](Cc2ccc(OS(=O)(=O)O)cc2)NC(C)=O)CCCCNC(=O)C[C@@H](C(=O)N(C)[C@@H](Cc2ccccc2)C(N)=O)NC1=O [Example 1] (HELM PEPTIDE1{[ac].[O=C([C@H](Cc1ccc(OS(=O)(=O)O)cc1)N[*:1])[*:2]].K.G.W.M.D.[meF].[am]}$PEPTIDE1,PEPTIDE1,3:R3-7:R3$$$V2.0) | 1500 | 3 | 1.4 | – | – | –
– | CSCC[C@@H]1NC(=O)[C@H](Cc2c[nH]c3ccccc23)NC(=O)CNC(=O)[C@@H](NC(=O)[C@H](Cc2ccc(OS(=O)(=O)O)cc2)NC(C)=O)CCCCNC(=O)C[C@@H](C(=O)N[C@@H](Cc2ccccc2)C(N)=O)NC1=O (HELM PEPTIDE1{[ac].[O=C([C@H](Cc1ccc(OS(=O)(=O)O)cc1)N[*:1])[*:2]].K.G.W.M.D.F.[am]}$PEPTIDE1,PEPTIDE1,3:R3-7:R3$$$V2.0) | 45 | > 1 | – | – | – | –
– | CCCC[C@@H]1NC(=O)[C@H](Cc2c[nH]c3ccccc23)NC(=O)CNC(=O)[C@@H](NC(=O)[C@H](Cc2ccc(OS(=O)(=O)O)cc2)NC(C)=O)CCCCNC(=O)C[C@@H](C(=O)N(C)[C@@H](Cc2ccccc2)C(N)=O)NC1=O (HELM PEPTIDE1{[ac].[O=C([C@H](Cc1ccc(OS(=O)(=O)O)cc1)N[*:1])[*:2]].K.G.W.[Nle].D.[meF].[am]}$PEPTIDE1,PEPTIDE1,3:R3-7:R3$$$V2.0) | 6600 | > 1 | – | – | – | –
90 | CSCC[C@H](NC(=O)[C@H](Cc1ccc(OS(=O)(=O)O)cc1)NC(=O)[C@@H](N)CC(=O)O)C(=O)NCC(=O)N[C@@H](Cc1c[nH]c2ccccc12)C(=O)N[C@@H](CCSC)C(=O)N[C@@H](CC(=O)O)C(=O)N[C@@H](Cc1ccccc1)C(N)=O [CCK-8, H-Asp-Tyr-(SO3 H)-Met-Gly-Trp-Met-Asp-Phe-NH2] | 1 to 3.2 | 0.001 to 0.0046 | 100 | decrease food intake | 27 ± 17 % of Control | 149 ± 6 % of Control
– | CSCC[C@@H]1NC(=O)[C@H](Cc2c[nH]c3ccccc23)NC(=O)CNC(=O)[C@@H](NC(=O)[C@H](Cc2ccc(OS(=O)(=O)O)cc2)NC(C)=O)CCCNC(=O)C[C@@H](C(=O)N(C)[C@@H](Cc2ccccc2)C(N)=O)NC1=O (HELM PEPTIDE1{[ac].[O=C([C@H](Cc1ccc(OS(=O)(=O)O)cc1)N[*:1])[*:2]].[Orn].G.W.M.D.[meF].[am]}$PEPTIDE1,PEPTIDE1,3:R3-7:R3$$$V2.0) | 13000 | 52 | – | – | – | –
– | CSCC[C@@H]1NC(=O)[C@H](Cc2ccc(OS(=O)(=O)O)cc2)NC(=O)CC[C@@H](C(=O)N[C@H](C(=O)N(C)[C@@H](Cc2ccccc2)C(N)=O)[C@@H](C)OS(=O)(=O)O)NC(=O)[C@H](Cc2c[nH]c3ccccc23)NC(=O)CNC1=O [Example 3] (HELM PEPTIDE1{[O=C([C@H](Cc1ccc(OS(=O)(=O)O)cc1)N[*:1])[*:2]].M.G.W.E.[C[C@@H](OS(=O)(=O)O)[C@H](N[*:1])C(=O)[*:2]].[meF].[am]}$PEPTIDE1,PEPTIDE1,1:R1-5:R3$$$V2.0) | > 10000 | > 10 | – | – | – | –
